Columns and labels:
[1] = system: HUVEC (umbilical vein) cells; test: MTT cytotoxicity assay, normal HUVEC cells; type: cell-based; conditions: Homo sapiens, 36 h, 36 h incubation, read-out: IC50 ± SE, HUVEC (toxicity, normal cell)
Description: (§1) Compounds L^1−L^10 were evaluated against human cancer cell lines Hela, HepG2, MCF-7, A549, and the normal cell HUVEC with the antiproliferative activities in vitro by MTT assay, and results are summarized as IC50 values in Table 3.
(§2) Hela, HepG2, MCF-7, A549, and HUVEC cells were used in the antiproliferative activity assay. Cancer cells were seeded in 96-well plates with a density of 10^4 cells per well, after 12 hours of incubation at 5% CO2 and 37 °C, the culture media was removed and cells were incubated with L^1−L^10 dissolved in DMEM at different concentrations (each concentration repeated 3 times) for 36 h at 5% CO2 and 37 °C. Subsequently, removed the culture media and the new culture medium containing MTT (1 mg/mL) was added, followed by incubating for 4 h to allow the formation of formazan dye (Xia et al., [2015]; Zhao et al., [2018]). After removing the medium, 200 μL DMSO was added to each well to dissolve the formazan crystals. Absorbance was measured at 595 nm in a microplate photometer. Cell viability values were determined (at least three times) according to the following formulae: cell viability (%) = the absorbance of experimental group/the absorbance of blank control group ×100%.

MCF-7 (breast) cells = test: MTT antiproliferative assay, MCF-7 cells; type: cell-based; conditions: Homo sapiens, MCF7, 36 h incubation, read-out: IC50 ± SE, MCF-7
Description: as §1, §2

Hela (cervix) cells = test: MTT antiproliferative assay, Hela cells; type: cell-based; conditions: Homo sapiens, 36 h incubation, read-out: IC50 ± SE, Hela
Description: as §1, §2

A549 (lung) cells = test: MTT antiproliferative assay, A549 cells; type: cell-based; conditions: Homo sapiens, 36 h incubation, read-out: IC50 ± SE, A549
Description: as §1, §2

HepG2 (liver) cells = test: MTT antiproliferative assay, HepG2 cells; type: cell-based; conditions: Homo sapiens, 36 h incubation, read-out: IC50 ± SE, HepG2
Description: as §2

pKb = type: physicochemical

Structure (SMILES) | IC50 (MCF-7 (breast) cells) | IC50 (Hela (cervix) cells) | melting point | IC50 (A549 (lung) cells) | IC50 (HepG2 (liver) cells) | pKb (pKb) | IC50 [1]
CC(C)c1ccc2c(c1)CCC1C(C)(CNC(=O)c3cnc(Cl)cn3)CCCC21C (stereo not shown) [L^10, 5-chloro-2-pyrazine-acyl-dehydroabietylamine] | 88.8 ± 3.46 µM | > 100 µM | 152.4 to 154.5 °C | 39.6 ± 1.74 µM | 56.1 ± 6.11 µM | – | 29.4 ± 2.35 µM
CC(C)c1ccc2c(c1)CCC1C(C)(CN)CCCC21C (stereo not shown) [L^0, dehydroabietylamine] | 19.4 ± 0.39 µM | 2.02 ± 0.02 µM | – | 5.02 ± 0.19 µM | 2.56 ± 0.04 µM | – | 1.27 ± 0.03 µM
CC(C)c1ccc2c(c1)CCC1C(C)(CNC(=O)c3cccs3)CCCC21C (stereo not shown) [L^4, 2–thiophene-acyl-dehydroabietylamine] | 8.21 ± 0.65 µM | 14.8 ± 0.22 µM | – | > 100 µM | 46 ± 1.13 µM | – | > 100 µM
CC(C)c1ccc2c(c1)CCC1C(C)(CN=Cc3ccc(Br)s3)CCCC21C (stereo not shown) [L^3, 5-bromine-2-thiophene-dehydroabietylamine-Schiff-base] | 2.65 ± 0.07 µM | 54.38 ± 0.38 µM | – | 95.5 ± 2.48 µM | 1.63 ± 0.39 µM | – | 16.6 ± 1.08 µM
Cc1ccc(C(=O)NCC2(C)CCCC3(C)c4ccc(C(C)C)cc4CCC23)s1 (stereo not shown) [L^5, 5-methyl-2-thiophene-acyl-dehydroabietylamine] | 8.27 ± 0.21 µM | > 100 µM | 169.4 to 171.7 °C | > 100 µM | 53.1 ± 1.95 µM | – | > 100 µM

Further compounds by falling IC50 (MCF-7 (breast) cells), results first:

IC50 (MCF-7 (breast) cells) | IC50 (Hela (cervix) cells) | melting point | IC50 (A549 (lung) cells) | IC50 (HepG2 (liver) cells) | pKb (pKb) | Structure (SMILES) | IC50 [1]
55.6 ± 2.56 µM | > 100 µM | 170.7 to 173.2 °C | 94.4 ± 2.56 µM | 51.4 ± 2 µM | – | CC(C)c1ccc2c(c1)CCC1C(C)(CNC(=O)c3ccc(Br)s3)CCCC21C (stereo not shown) [L^6, 5-bromine-2-thiophene-acyl-dehydroabietylamine] | 75.5 ± 12.4 µM
14.5 ± 2.48 µM | 59.52 ± 0.27 µM | 38.2 to 39.1 °C | > 100 µM | 28.78 ± 0.19 µM | – | Cc1ccsc1C=NCC1(C)CCCC2(C)c3ccc(C(C)C)cc3CCC12 (stereo not shown) [L^2, 3-methyl-2-thiophene-dehydroabietylamine-Schiff-base] | 34 ± 1.57 µM
14 ± 1.03 µM | 3.55 ± 0.17 µM | – | 3.35 ± 0.69 µM | 1.2 ± 0.04 µM | 5.80 | COc1cccc2c1C(=O)c1c(O)c3c(c(O)c1C2=O)C[C@@](O)(C(=O)CO)C[C@@H]3O[C@H]1C[C@H](N)[C@H](O)[C@H](C)O1 [DOX, Doxorubicin, reference compound] | 4.4 ± 0.55 µM
11.8 ± 0.54 µM | 43.5 ± 1.34 µM | 159.8 to 162.3 °C | 83.6 ± 15.7 µM | 24 ± 1.33 µM | – | CC(C)c1ccc2c(c1)CCC1C(C)(CNC(=O)c3cnccn3)CCCC21C (stereo not shown) [L^7, 2-pyrazine-acyl-dehydroabietylamine] | 66.8 ± 2.6 µM
8.81 ± 0.54 µM | 20.2 ± 0.89 µM | – | 36 ± 2.18 µM | 17.06 ± 0.07 µM | – | COc1cnc(C(=O)NCC2(C)CCCC3(C)c4ccc(C(C)C)cc4CCC23)cn1 (stereo not shown) [L^8, 5-methoxyl-2-pyrazine-acyl-dehydroabietylamine] | 95.1 ± 0.97 µM
6.66 ± 0.24 µM | 52.5 ± 0.54 µM | 130.7 to 133.4 °C | > 100 µM | 44.9 ± 0.75 µM | – | Cc1cnc(C(=O)NCC2(C)CCCC3(C)c4ccc(C(C)C)cc4CCC23)cn1 (stereo not shown) [L^9, 5–methyl-2-pyrazine-acyl-dehydroabietylamine] | 18.9 ± 1.72 µM
5.33 ± 0.16 µM | 9.02 ± 0.25 µM | – | 2.11 ± 0.06 µM | 0.66 ± 0.02 µM | – | CC(C)c1ccc2c(c1)CCC1C(C)(CN=Cc3cccs3)CCCC21C (stereo not shown) [L^1, 2-thiophene-dehydroabietylamine-Schiff-base] | 5.98 µM
